Assays:
FGFR1 kinase = FGFR1 kinase (Homo sapiens (Human), UniProt P11362); assay: FGFR1 TR-FRET kinase assay; type: biochemical; settings: for IC50: 13 μM ATP, read-out: IC50 of FGFR1 inhibition
Procedure: Compounds were screened in the TR-FRET assay with FGFR1 kinase. 5 ng of FGFR1 [Upstate, USA] kinase was used for assay. The compound was incubated with the kinase for 30 minutes at RT. After the incubation, substrate mix [40 nM Ultra light poly GT (Perkin Elmer, USA) and 13 μM ATP (Sigma)] was added. The above reaction was stopped by the addition of 40 mM EDTA after the […] kinase reaction. The Eu-labelled antiphospho-tyrosine antibody [Perkin Elmer, USA] was added at 0.5 nM and the fluorescence emission at 615 nm/665 nm [excitation at 340 nm] was measured. The compounds were initially screened at 100 nM and 1 μM concentrations. The compounds with >50% inhibition at 100 nM of FGFR1 were taken for the full dose response studies. The final DMSO concentration in the assay was 1%. For IC50 determination, ⅓^rd serial dilution was made from the 20 mM DMSO stock solution. 2 μl of these were transferred to the test wells containing 20 μl of the reaction mixture [total reaction volume 20 μl]. The fluorescence was measured in Perkin Elmer Wallac 1420 Multilabel Counter Victor 3. The IC50 was determined by fitting the dose response data to sigmoidal curve fitting equation using GraphPad Prism software V5.

c-Met kinase = c-Met kinase (Homo sapiens (Human), UniProt P08581); assay: c-Met TR-FRET kinase assay; type: biochemical; settings: 1000 nM compound
Sequence of c-Met kinase (P08581 25-1390): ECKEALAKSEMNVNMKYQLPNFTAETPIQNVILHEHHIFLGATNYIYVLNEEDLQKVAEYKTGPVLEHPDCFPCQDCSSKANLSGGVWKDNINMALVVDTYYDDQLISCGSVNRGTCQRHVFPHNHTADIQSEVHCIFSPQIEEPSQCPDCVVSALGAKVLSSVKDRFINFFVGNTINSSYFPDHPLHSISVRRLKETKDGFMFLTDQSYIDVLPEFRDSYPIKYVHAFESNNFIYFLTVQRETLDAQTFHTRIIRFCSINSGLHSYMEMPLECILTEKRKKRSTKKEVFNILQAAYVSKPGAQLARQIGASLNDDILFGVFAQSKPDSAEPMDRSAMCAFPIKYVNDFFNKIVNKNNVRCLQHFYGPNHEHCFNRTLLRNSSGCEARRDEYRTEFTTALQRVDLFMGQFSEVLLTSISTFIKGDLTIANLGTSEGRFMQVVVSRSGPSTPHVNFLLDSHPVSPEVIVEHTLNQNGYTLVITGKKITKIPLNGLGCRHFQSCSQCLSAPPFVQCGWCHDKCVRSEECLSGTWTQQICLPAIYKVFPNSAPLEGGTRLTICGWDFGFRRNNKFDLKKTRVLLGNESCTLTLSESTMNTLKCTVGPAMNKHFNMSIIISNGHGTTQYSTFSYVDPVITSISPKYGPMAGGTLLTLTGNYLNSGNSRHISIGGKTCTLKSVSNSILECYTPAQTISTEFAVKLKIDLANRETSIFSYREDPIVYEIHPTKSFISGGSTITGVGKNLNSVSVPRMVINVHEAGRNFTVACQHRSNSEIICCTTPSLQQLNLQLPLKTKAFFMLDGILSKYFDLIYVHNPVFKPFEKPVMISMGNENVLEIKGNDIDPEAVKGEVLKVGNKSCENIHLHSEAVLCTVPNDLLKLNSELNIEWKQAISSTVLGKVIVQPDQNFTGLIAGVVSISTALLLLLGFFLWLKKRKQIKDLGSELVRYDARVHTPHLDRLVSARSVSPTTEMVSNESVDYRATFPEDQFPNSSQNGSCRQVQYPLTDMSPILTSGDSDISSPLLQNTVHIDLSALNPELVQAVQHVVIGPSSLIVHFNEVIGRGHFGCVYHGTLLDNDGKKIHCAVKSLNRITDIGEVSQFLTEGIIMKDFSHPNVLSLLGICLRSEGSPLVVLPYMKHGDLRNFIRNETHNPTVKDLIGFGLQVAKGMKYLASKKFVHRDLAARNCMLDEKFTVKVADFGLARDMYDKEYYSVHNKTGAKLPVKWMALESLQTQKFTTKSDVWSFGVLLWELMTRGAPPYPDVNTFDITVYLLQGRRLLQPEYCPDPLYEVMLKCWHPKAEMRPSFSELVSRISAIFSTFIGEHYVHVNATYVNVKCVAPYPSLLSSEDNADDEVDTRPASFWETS
Procedure: Compounds were screened in the TR-FRET assay with c-Met kinase. 0.1 ng of c-Met [expressed in-house] kinase was used for assay. The compound was incubated with the kinase for 60 min at RT. After the incubation, substrate mix [40 nM Ultra light poly GT (Perkin Elmer, USA) and 10 μM ATP (Sigma)] was added. The above reaction was stopped by the addition of 40 mM EDTA after the 30 min kinase reaction. The Eu-labelled antiphospho-tyrosine antibody [Perkin Elmer, USA] was added at 0.5 nM and the fluorescence emission at 615 nm/665 nm [excitation at 340 nm] was measured. The compounds were initially screened at 100 nM and 1 μM concentrations. The compounds with >50% inhibition at 100 nM of c-Met were taken for the full dose response studies. The final DMSO concentration in the assay was 1%. For IC50 determination, ⅓rd serial dilution was made from the 20 mM DMSO stock solution. 2 μl of these were transferred to the test wells containing 20 μl reaction mixture [total reaction volume 20 μl]. The fluorescence was measured in Perkin Elmer Wallac 1420 Multilabel Counter Victor 3. The IC50 was determined by fitting the dose response data to sigmoidal curve fitting equation using GraphPad Prism software V5.

Sequence of FGFR1 kinase (P11362 22-822): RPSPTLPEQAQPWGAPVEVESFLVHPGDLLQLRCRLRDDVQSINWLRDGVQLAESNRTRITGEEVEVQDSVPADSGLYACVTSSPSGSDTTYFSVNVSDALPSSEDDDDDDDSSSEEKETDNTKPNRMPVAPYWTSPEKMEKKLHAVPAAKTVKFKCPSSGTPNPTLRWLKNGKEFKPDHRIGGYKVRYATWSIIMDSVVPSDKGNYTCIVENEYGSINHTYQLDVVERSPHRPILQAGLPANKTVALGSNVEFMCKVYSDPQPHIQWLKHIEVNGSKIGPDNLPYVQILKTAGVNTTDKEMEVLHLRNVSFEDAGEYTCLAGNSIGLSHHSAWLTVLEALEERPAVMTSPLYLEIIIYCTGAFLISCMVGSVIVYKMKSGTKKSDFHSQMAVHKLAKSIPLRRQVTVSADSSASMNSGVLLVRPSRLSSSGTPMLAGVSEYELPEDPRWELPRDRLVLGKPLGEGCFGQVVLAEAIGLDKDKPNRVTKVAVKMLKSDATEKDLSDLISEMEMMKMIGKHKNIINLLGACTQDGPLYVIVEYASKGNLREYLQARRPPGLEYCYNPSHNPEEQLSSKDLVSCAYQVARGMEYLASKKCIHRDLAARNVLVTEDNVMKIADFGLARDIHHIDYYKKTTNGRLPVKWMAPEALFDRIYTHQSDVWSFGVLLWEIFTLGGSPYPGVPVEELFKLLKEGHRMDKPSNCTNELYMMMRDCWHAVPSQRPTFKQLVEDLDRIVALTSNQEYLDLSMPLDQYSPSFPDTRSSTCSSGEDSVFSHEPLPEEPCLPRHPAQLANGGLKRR

| SMILES | inhibition at 1 µM (FGFR1 kinase; 1000 nM compound) [%] | IC50 (FGFR1 kinase) [nM] | inhibition at 1 µM (c-Met kinase) [%] | Inhibition (%) of FGFR1 at 1000 nM (FGFR1 kinase; 1000 nM compound) [%] |
| --- | --- | --- | --- | --- |
| Cn1cc(-c2ccc3c(c2)ncn3-c2cc(NS(=O)(=O)C3CC3)cc(-c3ccc(F)cc3F)c2)cn1 [Example 5, N-(2′,4′-difluoro-5-(5-(1-methyl-1H-pyrazol-4-yl)-1H-benzo[d]imidazol-1-yl)-biphenyl-3-yl)cyclopropanesulfonamide] | 95 | 12 | 7 | – |
| CC(=O)Nc1cc(-c2ccc(F)cc2F)cc(-n2cnc3cc(-c4cnco4)ccc32)c1 [Example 22, N-(2′,4′-difluoro-5-(5-(oxazol-5-yl)-1H-benzo[d]imidazol-1-yl)biphenyl-3-yl)-acetamide] | 99 | 3.8 | 5 | – |
| CC(C)S(=O)(=O)Nc1cc(-c2ccc(F)cc2F)cc(-n2cnc3cc(-c4cnco4)ccc32)c1 [Example 25, N-(2′,4′-difluoro-5-(5-(oxazol-5-yl)-1H-benzo[d]imidazol-1-yl)biphenyl-3-yl)-propane-2-sulfonamide] | 93 | 34 | 12 | – |
| O=S(=O)(Nc1cc(-c2ccc(F)cc2F)cc(-n2cnc3cc(-c4cnco4)ccc32)c1)c1ccccc1 [Example 26, N-(2′,4′-difluoro-5-(5-(oxazol-5-yl)-1H-benzo[d]imidazol-1-yl)biphenyl-3-yl)-benzenesulfonamide] | 93 | 21 | 2 | – |
| CCS(=O)(=O)Nc1cc(-c2ccc(F)cc2F)cc(-n2cnc3cc(-n4cccn4)ccc32)c1 [Example 30, N-(5-(5-(1H-pyrazol-1-yl)-1H-benzo[d]imidazol-1-yl)-2′,4′-difluorobiphenyl-3-yl)ethanesulfonamide] | 94 | 16 | 1 | – |
| O=C(Nc1cc(-c2ccc(F)cc2F)cc(-n2cnc3cc(-n4cccn4)ccc32)c1)NC1CCCC1 [Example 38, 1-(5-(5-(1H-pyrazol-1-yl)-1H-benzo[d]imidazol-1-yl)-2′,4′-difluorobiphenyl-3-yl)-3-cyclopentylurea] | 88 | 33 | 0 | – |
| CC(C)(O)CCn1cc(-c2ccc3c(c2)ncn3-c2cc(NS(=O)(=O)C3CC3)cc(-c3ccc(F)cc3F)c2)nn1 [Example 47, N-(2′,4′-difluoro-5-(5-(1-(3-hydroxy-3-methylbutyl)-1H-1,2,3-triazol-4-yl)-1H-benzo[d]imidazol-1-yl)biphenyl-3-yl)cyclopropanesulfonamide] | 99 | 7 | 10 | – |
| CC(=O)Nc1cc(-c2ccc(F)cc2F)cc(-n2cnc3cc(C4=NCCN4)ccc32)c1 [Example 169, N-(5-(5-(4,5-dihydro-1H-imidazol-2-yl)-1H-benzo[d]imidazol-1-yl)-2′,4′-difluoro-[1,1′-biphenyl]-3-yl)acetamide] | 89 | 94 | – | – |
| CC(=O)Nc1cc(-c2ccc(F)cc2)cc(-n2cnc3cc(-c4ccc(F)nc4)ccc32)c1 [Example 170, N-(4′-fluoro-5-(5-(6-fluoropyridin-3-yl)-1H-benzo[d]imidazol-1-yl)-[1,1′-biphenyl]-3-yl)acetamide] | 92 | 59 | – | – |
| CC(=O)Nc1cc(-c2ccc(F)cc2F)cc(-n2cnc3cc(-c4ccc(F)nc4)cnc32)c1 [Example 178, N-(2′,4′-difluoro-5-(6-(6-fluoropyridin-3-yl)-3H-imidazo[4,5-b]pyridin-3-yl)-[1,1′-biphenyl]-3-yl)acetamide] | 86 | 14.9 | – | – |
| COc1ccc(-c2cc(NC(C)=O)cc(-n3cnc4cc(-c5cnn(C)c5)ccc43)c2)c(F)c1 [Example 190, N-(2′-fluoro-4′-methoxy-5-(5-(1-methyl-1H-pyrazol-4-yl)-1H-benzo[d]imidazol-1-yl)-[1,1′-biphenyl]-3-yl)acetamide] | 96 | 4.3 | – | – |
| CC(C)n1cc(-c2ccc3c(c2)ncn3-c2cc(NS(=O)(=O)C3CC3)cc(-c3ccc(F)cc3F)c2)cn1 [Example 204, N-(2′,4′-difluoro-5-(5-(1-isopropyl-1H-pyrazol-4-yl)-1H-benzo[d]imidazol-1-yl)-[1,1′-biphenyl]-3-yl)cyclopropanesulfonamide] | 98 | 20 | – | – |
| CNS(=O)(=O)N(C)c1cc(-c2ccc(F)cc2F)cc(-n2cnc3cc(-c4cnn(C(C)C)c4)cnc32)c1 [Example 217, N-(2′,4′-difluoro-5-(6-(1-isopropyl-1H-pyrazol-4-yl)-3H-imidazo[4,5-b]pyridin-3-yl)-[1,1′-biphenyl]-3-yl)-N,N′-dimethylsulfuric diamide] | 91 | 10.4 | – | – |
| CC(=O)Nc1cc(-c2ccc(F)cc2)cc(-n2cnc3cc(-c4cnn(CCC(C)(C)O)c4)ccc32)c1 [Example 220, N-(4′-fluoro-5-(5-(1-(3-hydroxy-3-methylbutyl)-1H-pyrazol-4-yl)-1H-benzo[d]-imidazol-1-yl)-[1,1′-biphenyl]-3-yl) acetamide] | 97 | 3.4 | – | – |
| Cn1cc(-c2ccc3c(c2)ncn3-c2cc(NC(=O)Cn3cncn3)cc(-c3ccc(F)cc3F)c2)cn1 [Example 241, N-(2′,4′-difluoro-5-(5-(1-methyl-1H-pyrazol-4-yl)-1H-benzo[d]imidazol-1-yl)-[1,1′-biphenyl]-3-yl)-2-(1H-1,2,4-triazol-1-yl) acetamide] | – | 2.9 | – | 97 |
| Cn1cc(-c2cnc3c(c2)ncn3-c2cc(NS(=O)(=O)NC3CC3)cc(-c3ccc(F)cc3F)c2)cn1 [Example 244, N-cyclopropyl-N′-(2′,4′-difluoro-5-(6-(1-methyl-1H-pyrazol-4-yl)-3H-imidazo[4,5-b]pyridin-3-yl)-[1,1′-biphenyl]-3-yl)-sulfuric diamide] | 98 | 14 | – | – |
| O=C(CN1CCCCC1)Nc1cc(-c2ccc(F)cc2F)cc(-n2cnc3cc(-n4cccn4)ccc32)c1 [Example 259, N-(5-(5-(1H-pyrazol-1-yl)-1H-benzo[d]imidazol-1-yl)-2′,4′-difluoro-[1,1′-biphenyl]-3-yl)-2-(piperidin-1-yl)acetamide] | 92 | 45 | – | – |
| Cn1cc(-c2ccc3c(c2)ncn3-c2cc(Nc3ncccn3)cc(-c3ccc(F)cc3F)c2)cn1 [Example 280, N-(2′,4′-difluoro-5-(5-(1-methyl-1H-pyrazol-4-yl)-1H-benzo[d]imidazol-1-yl)-[1,1′-biphenyl]-3-yl)pyrimidin-2-amine] | 80 | 90 | – | – |
| Cn1cc(-c2ccc3c(c2)ncn3-c2cc(Nc3nccs3)cc(-c3ccc(F)cc3F)c2)cn1 [Example 281, N-(2′,4′-difluoro-5-(5-(1-methyl-1H-pyrazol-4-yl)-1H-benzo[d]imidazol-1-yl)-[1,1′-biphenyl]-3-yl) thiazol-2-amine] | 96 | 9 | – | – |
| O=c1ccc(-c2ccc3c(c2)ncn3-c2cc(NS(=O)(=O)C3CC3)cc(-c3ccc(F)cc3F)c2)c[nH]1 [Example 289, N-(2′,4′-difluoro-5-(5-(6-oxo-1,6-dihydropyridin-3-yl)-1H-benzo[d]imidazol-1-yl)-[1,1′-biphenyl]-3-yl)cyclopropanesulfonamide] | 94 | 32 | – | – |
| CS(=O)(=O)Nc1cc(-c2ncccc2F)cc(-n2cnc3cc(-c4cnn(CCN5CCOCC5)c4)ccc32)c1 [Example 294, N-(3-(3-fluoropyridin-2-yl)-5-(5-(1-(2-morpholinoethyl)-1H-pyrazol-4-yl)-1H-benzo[d]imidazol-1-yl)phenyl)methane sulphonamide] | 99 | 9.3 | – | – |
| CN1CCC(C(=O)Nc2cc(-c3ccc(F)cc3F)cc(-n3cnc4cc(-c5cnn(C)c5)cnc43)c2)CC1 [Example 319, N-(2′,4′-difluoro-5-(6-(1-methyl-1H-pyrazol-4-yl)-3H-imidazo[4,5-b]pyridin-3-yl)-[1,1′-biphenyl]-3-yl)-1-methylpiperidine-4-carboxamide] | 97 | 18 | – | – |
| O=S(=O)(Nc1cc(C2=CC=C(F)CC2F)cc(-n2cnc3cc(N4CCC(O)C4)ccc32)c1)C1CC1 (centres unmarked) [Example 322, N-(2′,4′-difluoro-5-(5-(3-hydroxypyrrolidin-1-yl)-1H-benzo[d]imidazol-1-yl)-2′,3′-dihydro-[1,1′-biphenyl]-3-yl)cyclopropanesulfonamide] | 92 | 65.8 | – | – |
